Results from US20250066341A1 (CHIESI FARMACEUTICI S.P.A., priority 2021, published 2025).

Target: T1, human recombinant LPA1 expressed in CHO cells (Homo sapiens, UniProt Q92633)
T1 construct: expressed in transfected cells; host or cells: CHO cells (CHO-hLPA1 cell line)
Test: FLIPR calcium mobilization assay, LPA1 antagonism in CHO-hLPA1 cells
Type: cell-based
Details: inhibition of LPA EC80 Ca2+ response, 30 min pre-incubation, expressed as range of activity
Method in brief: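 CHO-hLPA1 cells loaded with 5 μM Cal-520 AM plus 2.5 mM probenecid, 30 min at 37 °C, then pre-incubated 30 min at 37 °C with antagonist (11-point CRC, 0.5% DMSO final) before LPA at EC80. Baseline-subtracted peak fluorescence normalised to % inhibition; pIC50 from four-parameter logistic fit.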

T1 sequence (Q92633 whole entry): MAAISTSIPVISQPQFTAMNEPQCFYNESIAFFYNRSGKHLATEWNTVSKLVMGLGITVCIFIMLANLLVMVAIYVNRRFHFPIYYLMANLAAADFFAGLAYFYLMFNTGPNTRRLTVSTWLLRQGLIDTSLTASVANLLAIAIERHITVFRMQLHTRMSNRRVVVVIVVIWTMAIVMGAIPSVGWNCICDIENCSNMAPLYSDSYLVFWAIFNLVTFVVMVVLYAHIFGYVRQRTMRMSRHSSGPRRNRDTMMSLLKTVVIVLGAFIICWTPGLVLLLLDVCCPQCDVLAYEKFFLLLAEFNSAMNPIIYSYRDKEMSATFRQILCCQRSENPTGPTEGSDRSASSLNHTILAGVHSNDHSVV

| SMILES | IC50 [nM] |
| --- | --- |
| Cc1nc(-c2nnn(C)c2CNC(=O)O[C@H](C)c2ccccc2Cl)ccc1NC(=O)[C@H]1CCCC[C@@H]1C(=O)O [Compound 42, (1S,2S)-2-((6-(5-(((((R)-1-(2-chlorophenyl)ethoxy)carbonyl)amino)methyl)-1-methyl-1H-1,2,3-triazol-4-yl)-2-methylpyridin-3-yl)carbamoyl)cyclohexane-1-carboxylic acid] | 250 to 600 |
| Cc1nc(-c2cnn(C)c2CNc2nccc(C3CCCCC3)n2)ccc1NC(=O)[C@H]1CCCC[C@@H]1C(=O)O [Compound 18] | < 50 |
| Cc1nc(-c2onc(C)c2Nc2cncc(C3CCCC3)n2)ccc1NC(=O)[C@H]1CCCC[C@@H]1C(=O)O [Compound 11, (1S,2S)-2-((6-(4-((6-cyclopentylpyrazin-2-yl)amino)-3-methylisoxazol-5-yl)-2-methylpyridin-3-yl)carbamoyl)cyclohexane-1-carboxylic acid] | < 50 |
| Cc1nc(-c2onc(C)c2Nc2cncc(-c3ccncc3)n2)ccc1NC(=O)[C@H]1CCCC[C@@H]1C(=O)O [Compound 8, (1S,2S)-2-((2-methyl-6-(3-methyl-4-((6-(pyridin-4-yl)pyrazin-2-yl)amino)isoxazol-5-yl)pyridin-3-yl)carbamoyl)cyclohexane-1-carboxylic acid] | 50 to 250 |
| Cc1nc(-c2onc(C)c2CNC(=O)OCc2ccccc2)ccc1NC(=O)[C@H]1CCCC[C@@H]1C(=O)O [Compound 32, (1S,2S)-2-((6-(4-((((benzyloxy)carbonyl)amino)methyl)-3-methylisoxazol-5-yl)-2-methylpyridin-3-yl)carbamoyl)cyclohexane-1-carboxylic acid] | 50 to 250 |
| Cc1nc(-c2onc(C)c2Nc2cncc(-c3ccccn3)n2)ccc1NC(=O)[C@H]1CCCC[C@@H]1C(=O)O [Compound 14, (1S,2S)-2-((2-methyl-6-(3-methyl-4-((6-(pyridin-2-yl)pyrazin-2-yl)amino)isoxazol-5-yl)pyridin-3-yl)carbamoyl)cyclohexane-1-carboxylic acid] | 50 to 250 |

Other lines, results leading:

| IC50 [nM] | SMILES |
| --- | --- |
| 50 to 250 | Cc1noc(-c2ccc(OC[C@H]3CCCC[C@@H]3C(=O)O)cc2)c1NC(=O)O[C@H](C)c1cccnc1 [Compound 59, (1S,2S)-2-((4-(3-methyl-4-((((R)-1-(pyridin-3-yl)ethoxy)carbonyl)amino)isoxazol-5-yl)phenoxy)methyl)cyclohexane-1-carboxylic acid] |
| 50 to 250 | Cc1nc(-c2onc(C)c2COC(=O)N(C)C2CCCC2)ccc1NC(=O)[C@H]1CCCC[C@@H]1C(=O)O [Compound 45, (1S,2S)-2-((6-(4-(((cyclopentyl(methyl)carbamoyl)oxy)methyl)-3-methylisoxazol-5-yl)-2-methylpyridin-3-yl)carbamoyl)cyclohexane-1-carboxylic acid] |
| 50 to 250 | Cc1nc(-c2nnn(C)c2CNc2cncc(OC(C)C)n2)ccc1OC[C@H]1CCCC[C@@H]1C(=O)O [Compound 73] |
| < 50 | Cc1nc(-c2onc(C)c2NS(=O)(=O)CCc2ccccc2)ccc1OC[C@H]1CCCC[C@@H]1C(=O)O [Compound 57, (1S,2S)-2-(((2-methyl-6-(3-methyl-4-((2-phenylethyl)sulfonamido)isoxazol-5-yl)pyridin-3-yl)oxy)methyl)cyclohexane-1-carboxylic acid] |
| < 50 | CCC[C@@H](C)OC(=O)Nc1c(C)noc1-c1ccc(OC[C@H]2CCCC[C@@H]2C(=O)O)c(C)n1 [Compound 70] |
